In patent US20220281848A1, “PYRAZOLE-SUBSTITUTED PYRROLIDINONES AS HERBICIDES” (FMC Corporation, priority 2019, published 2022):

Test system: plants
Assay: Test D pre-emergence, other plants of Tables D1 and D3
Type: in vivo
Details: pre-emergence, 100=total damage, 0=no damage
Procedure: A formulation containing 50 g/L of the test chemical was prepared by dissolving the active ingredient in a mixture of organic solvents and emulsifier, details of which are provided in the table. This formulation was then mixed with a small, variable amount of acetone to aid dissolution, before addition of a 0.2% v/v aqueous solution of an adjuvant, as the aqueous diluent, to form an aqueous spray solution which contains a predetermined concentration of the active ingredient.
This aqueous spray solution was then sprayed onto plants including maize and wheat that had been seed treated with a herbicide safener, after one day's cultivation (for pre-emergence) or after about 12 days' cultivation (for post-emergence). The plants were grown from seeds sown in standard soil, placed in a glasshouse under controlled conditions (at 24/18° C. or 20/16° C., day/night; 16 h light; 65% humidity). After spray application the plants were then grown in a glasshouse under the same conditions and watered twice daily. After 15 d for post-emergence and 20 DAA for pre-emergence the test was evaluated (100=total damage to plant; 0=no damage to plant).

Structure (SMILES): CN1CC(c2cc(C(F)(F)F)n(C)n2)C(C(=O)Nc2cccc(F)c2F)C1=O (racemic) [Compound 3]
- damage to plant, ALOMY (rate 15, 20 DAA): 0
- damage to plant, AVEFA (rate 15, 20 DAA): 0
- damage to plant, BEAVA (rate 15, 20 DAA): 0
- damage to plant, BROTE (rate 15, 20 DAA): 0
- damage to plant, BRSNN (rate 15, 20 DAA): 0
- damage to plant, CHEAL (rate 15, 20 DAA): 0
- damage to plant, GALAP (rate 15, 20 DAA): 0
- damage to plant, HORVW (rate 15, 20 DAA): 0
- damage to plant, KCHSC (rate 15, 20 DAA): 0
- damage to plant, LOLPE (rate 15, 20 DAA): 0
- damage to plant, POAAN (rate 15, 20 DAA): 0
- damage to plant, POLCO (rate 15, 20 DAA): 0
- damage to plant, SINAR (rate 15, 20 DAA): 0
- damage to plant, STEME (rate 15, 20 DAA): 0
- damage to plant, VERPE (rate 15, 20 DAA): 0
- damage to plant, ALOMY (rate 30, 20 DAA): 0
- damage to plant, AVEFA (rate 30, 20 DAA): 0
- damage to plant, BEAVA (rate 30, 20 DAA): 0
- damage to plant, BROTE (rate 30, 20 DAA): 0
- damage to plant, BRSNN (rate 30, 20 DAA): 0
- damage to plant, CHEAL (rate 30, 20 DAA): 0
- damage to plant, GALAP (rate 30, 20 DAA): 0
- damage to plant, HORVW (rate 30, 20 DAA): 0
- damage to plant, KCHSC (rate 30, 20 DAA): 0
- damage to plant, LOLPE (rate 30, 20 DAA): 0
- damage to plant, POAAN (rate 30, 20 DAA): 20
- damage to plant, POLCO (rate 30, 20 DAA): 0
- damage to plant, SINAR (rate 30, 20 DAA): 0
- damage to plant, STEME (rate 30, 20 DAA): 0
- damage to plant, VERPE (rate 30, 20 DAA): 0
- damage to plant, ALOMY (rate 60, 20 DAA): 0
- damage to plant, AVEFA (rate 60, 20 DAA): 0
- damage to plant, BEAVA (rate 60, 20 DAA): 0
- damage to plant, BROTE (rate 60, 20 DAA): 0
- damage to plant, BRSNN (rate 60, 20 DAA): 0
- damage to plant, CHEAL (rate 60, 20 DAA): 0
- damage to plant, GALAP (rate 60, 20 DAA): 0
- damage to plant, HORVW (rate 60, 20 DAA): 0
- damage to plant, KCHSC (rate 60, 20 DAA): 0
- damage to plant, LOLPE (rate 60, 20 DAA): 0
- damage to plant, POAAN (rate 60, 20 DAA): 20
- damage to plant, POLCO (rate 60, 20 DAA): 0
- damage to plant, SINAR (rate 60, 20 DAA): 0
- damage to plant, STEME (rate 60, 20 DAA): 0
- damage to plant, VERPE (rate 60, 20 DAA): 0
- damage to plant, ALOMY (rate 130, 20 DAA): 0
- damage to plant, AVEFA (rate 130, 20 DAA): 0
- damage to plant, BEAVA (rate 130, 20 DAA): 0
- damage to plant, BROTE (rate 130, 20 DAA): 0
- damage to plant, BRSNN (rate 130, 20 DAA): 0
- damage to plant, CHEAL (rate 130, 20 DAA): 0
- damage to plant, GALAP (rate 130, 20 DAA): 0
- damage to plant, HORVW (rate 130, 20 DAA): 0
- damage to plant, KCHSC (rate 130, 20 DAA): 0
- damage to plant, LOLPE (rate 130, 20 DAA): 0
- damage to plant, POAAN (rate 130, 20 DAA): 40
- damage to plant, POLCO (rate 130, 20 DAA): 0
- damage to plant, SINAR (rate 130, 20 DAA): 0
- damage to plant, STEME (rate 130, 20 DAA): 0
- damage to plant, VERPE (rate 130, 20 DAA): 0
- damage to plant, ALOMY (rate 250, 20 DAA): 0
- damage to plant, AVEFA (rate 250, 20 DAA): 0
- damage to plant, BEAVA (rate 250, 20 DAA): 0
- damage to plant, BROTE (rate 250, 20 DAA): 0
- damage to plant, BRSNN (rate 250, 20 DAA): 0
- damage to plant, CHEAL (rate 250, 20 DAA): 0
- damage to plant, GALAP (rate 250, 20 DAA): 0
- damage to plant, HORVW (rate 250, 20 DAA): 0
- damage to plant, KCHSC (rate 250, 20 DAA): 0
- damage to plant, LOLPE (rate 250, 20 DAA): 0
- damage to plant, POAAN (rate 250, 20 DAA): 50
- damage to plant, POLCO (rate 250, 20 DAA): 0
- damage to plant, SINAR (rate 250, 20 DAA): 0
- damage to plant, STEME (rate 250, 20 DAA): 0
- damage to plant, VERPE (rate 250, 20 DAA): 0
- damage to plant, ALOMY (rate 500, 20 DAA): 20
- damage to plant, AVEFA (rate 500, 20 DAA): 30
- damage to plant, BEAVA (rate 500, 20 DAA): 0
- damage to plant, BROTE (rate 500, 20 DAA): 0
- damage to plant, BRSNN (rate 500, 20 DAA): 0
- damage to plant, CHEAL (rate 500, 20 DAA): 0
- damage to plant, GALAP (rate 500, 20 DAA): 0
- damage to plant, HORVW (rate 500, 20 DAA): 20
- damage to plant, KCHSC (rate 500, 20 DAA): 0
- damage to plant, LOLPE (rate 500, 20 DAA): 50
- damage to plant, POAAN (rate 500, 20 DAA): 60
- damage to plant, POLCO (rate 500, 20 DAA): 0
- damage to plant, SINAR (rate 500, 20 DAA): 0
- damage to plant, STEME (rate 500, 20 DAA): 30
- damage to plant, VERPE (rate 500, 20 DAA): 60
